Results from patent US11434195B2, “Compositions and methods for treatment of central nervous system tumors” (UNIVERSITY OF FLORIDA RESEARCH FOUNDATION, INC., priority 2017, dated 2022).
pIC50: −log10 of the molar value. Entries after “also recorded” stand apart in the source; their conditions may differ. Counter-ions that a name gives are not always drawn. Like-named read-outs stand apart in the source and are kept apart here.

Legend:
[1] = system: adherent CA1 human glioblastoma multiforme cells; experiment: Viability/proliferation of adherent CA1 glioblastoma cells (MTS); type: cell-based; conditions: for pIC50: Homo sapiens
Description: In addition, glioma cells were cultured (adherent) in DMEM/F12 medium with 10% FBS to attain about 70% confluency. AIP (ranging from about 1 μM to about 100 μM) was added once or twice as above for 24 hours, 48 hours, or 72 hours and analyzed at these time points for proliferation, cell death and markers.
Ales were screened in patient glioblastoma cells CA1 cells proliferating in adherent cultures. Briefly, cells were cultured in DMEM/F12 medium with 10% FBS to attain about 70% confluency. AIP1, AIP2, or vehicle (control) were added for 24 hours and analyzed for proliferation and survival. […] Cell viability/proliferation was measured by MTS added for additional 2-3 hours (FIG. 10A). Microphotographs of the cells were taken with Hoffman modulation-equipped phase-contrast microscope (FIG. 10B; x20 magnification is shown).

[2] = system: primary human hepatocytes; experiment: Survival of primary human hepatocytes; type: cell-based; conditions: up to 50 μM
Description: The cell integrity and structural architecture were not altered following incubation with AIPs for a week (see FIG. 11B).

[3] = system: CA1 cancer stem cell-derived carcinoid bodies ('carcinospheres'); experiment: Carcinoid sphere model of tumor-initiating glioblastoma stem cells; type: cell-based; conditions: Homo sapiens
Description: Human glioblastoma cell lines CA1 (also sometimes referred to as BT73) and L1 are cells are available from the Florida Center for Brain Tumor Research University of Florida Biorepository. Glioma cells (for example CA1, U87MG or L1), are suspended by trituration as single cells and plated at a density of about 25,000 cells/mL in low adhesion plates in Neurobasal® medium containing 1% methylcellulose and growth factors. The cultures are treated with single or repeated doses of AIPs (ranging from 0.1 to 20 […]) or vehicle (control) and maintained for 24 hours, 72 hours and 7 days. The number and size of ‘carcinoid’ spheres are quantitated by inverted phase contrast microscopy, and spheres collected for analysis for determination of survival and growth/proliferation.
This suppression of tumor-initiating glioblastoma multiforme stem/progenitor cells was determined using a ‘carcinoid sphere’ model in serum- and in anchorage-free media. The ability to block cancer stem cell activation and to destroy them is very useful for strategies to prevent glioblastoma recurrence. Here, AIPs blocked completely the activation of tumor-initiating CA1 cells and formation of carcinospheres at ≥2 μM concentrations. […] FIG. 9B is a set of representative photographs of the cells treated as indicated.
With respect to methods, generation of carcinoid spheres from GBM was performed essentially as described previously (Cao et al., Composite fatty acid ether amides suppress growth of liver cancer cells in vitro and in an in vivo allograft mouse model, Cell. Oncol. 36(3):247-257, 2013 and Reinartz et al., Functional Subclone Profiling for Prediction of Treatment-Induced Intratumor Population Shifts and Discovery of Rational Drug Combinations in Human Glioblastoma, Clinical Cancer Research: an official journal of the American Association for Cancer Research 23(2):562-574, 2017). […] The number and size of spheres were quantitated by inverted phase contrast microscopy. […]

[4] = system: AKT; experiment: AKT kinase activity / basal AKT phosphorylation in HUH-7 cells; type: cell-based, human; conditions: proliferating HUH-7 cells, 10 μM
[5] = Tissue accumulation after intraperitoneal injection; type: in vivo; conditions: mice, hydrochloride
Description: To assure brain bioavailability of the inventive compounds, time-dependent brain, liver and […] AIP accumulation was measured after intraperitoneal injection of 2.0 mg AIP2. Mice were sacrificed at specific times following injection. Tissues (blood, brain and liver) were taken, and the lipids extracted, loaded on silica-gel column, washed with diethyl ether, and eluted with 10% ethyl acetate in hexane. The eluates were further purified using gradient HPLC on a C8 reverse phase column and the AIP-corresponding fraction was collected and quantitatively analyzed by […], coupled with electrospray ionization-mass-spectroscopy using internal AIP standard.

Q: Which results are given for `CCCCCCCC/C=C\CCCCCCCCOCC(O)CNC(C)C` (stereo not shown) [AIP2, Octadecenyloxy-3-isopropylamine-propan-2-ol hydrochloride]?
A: Effect on adherent CA1 glioblastoma cells ([1]; 20 μM, hydrochloride): complete shutdown of metabolic activity; also recorded: destroyed all cancer cells; pIC50 ([1]; read-out: IC50, growth and survival of human malignant glioblastoma cells (CA1)): 5.16; pIC50 ([1]; read-out: IC50, proliferating glioblastoma cells): 5.15; Survival of primary human hepatocytes [2]: did not reduce survival; pIC50 ([3]; read-out: IC50, block of development of brain tumor-initiating stem cells): 5.96; pIC50 ([3]; read-out: IC50, formation and growth of CA1 cancer stem cell-derived carcinoid bodies): 5.96; pIC50 ([3]; read-out: IC50, inhibition of brain tumor-initiating cancer stem cells): 5.96; Basal AKT phosphorylation [4]: blocked basal AKT phosphorylation; Blood-brain barrier penetration ([5]; 24 hours after intraperitoneal injection): able to cross the blood-brain barrier; also recorded: significant blood-brain-barrier (BBB) penetration; Tissue accumulation of non-metabolized compound ([5]; intraperitoneal injection of 2 mg, up to 24 hours): did accumulate in brain tissue; also recorded: accumulated in brain and liver in a time-dependent fashion
